For assay [1], the target named is Jarid1B (Homo sapiens (Human), UniProt Q9UGL1). As to the kind of experiment: Jarid1B in vitro enzyme inhibition assay (TR-FRET). Format: biochemical. Background: In TR-FRET formats the signal depends on donor and acceptor labels being close together.
Assay [2] concerns the target Jarid1A (Homo sapiens (Human), UniProt P29375). As to the kind of experiment: Jarid1A in vitro enzyme inhibition assay (TR-FRET). It is filed as biochemical.
The subject of assay [3] is KDM5A/B. As to the kind of experiment: In vitro cell-based assay: tri-methyl H3K4 immuno-blotting in ZR-75-1 breast cancer cells. To be noted: 72 hours, read-out: Cellular IC50. The procedure: This quantitative immuno-blotting assay measures the amount tri-methylated histone H3 at amino acid Lysine number 4, a specific substrate […] of the direct enzymatic activity of the histone demethylases KDM5A and KDM5B from extracts of the ZR-75-1 breast cancer cell line.
This assay is a fluorometric immunoassay for the quantification of tri-methyl H3K4 extracted from cells treated with test compound and is used as a measure of the cellular inhibition of KDM5A/B.
Extracts were prepared containing all of the cellular histone material using detergent based lysis and sonication methods. These lysates were subsequently normalized for total protein content using a colorimetric bicinchonic acid assay (MicroBCA Pierce/Thermo Scientific). Normalized cell extracts were then subjected to typical immuno-blotting procedures using NuPage reagents (Life Technologies). Electrophoretically separated histones were then transferred and immobilized using polyvinylidene difluoride membrane (Immobilon-FL Millipore). The amount of tri-methylated lysine 4 of histone H3 was detected using an antibody specific to the tri-methylated state (Cell Signaling Technologies) and quantified on an infrared imager using a densitometry software package (Odyssey CLx, Image Studio, Li-Cor). This background subtracted densitometry value was reported as a ration of the GAPDH amount for that sample and then calculated as a percent of the DMSO treated sample. The software package XL-fit (IDBS) was then used to calculate a relative IC50 value for the dilution series of a given test compound according to the equation: fit=(D+((Vmax*(x^n))/((x^n)+(Km^n)))).

Assay [4] has as its target JMJD2C (Homo sapiens (Human), UniProt Q9H3R0). Kind of assay: JMJD2C in vitro enzyme inhibition assay (TR-FRET). Format: biochemical.

SMILES strings stand for the structures. pIC50: −log10 of the molar value. Structures can show the parent of a compound that is named as a salt. Bounds are passed on as bounds.

What is called pIC50 is the IC50 on a negative log10 scale, so that one unit is a factor of ten.

JMJD2C, sequence (Q9H3R0 2-372): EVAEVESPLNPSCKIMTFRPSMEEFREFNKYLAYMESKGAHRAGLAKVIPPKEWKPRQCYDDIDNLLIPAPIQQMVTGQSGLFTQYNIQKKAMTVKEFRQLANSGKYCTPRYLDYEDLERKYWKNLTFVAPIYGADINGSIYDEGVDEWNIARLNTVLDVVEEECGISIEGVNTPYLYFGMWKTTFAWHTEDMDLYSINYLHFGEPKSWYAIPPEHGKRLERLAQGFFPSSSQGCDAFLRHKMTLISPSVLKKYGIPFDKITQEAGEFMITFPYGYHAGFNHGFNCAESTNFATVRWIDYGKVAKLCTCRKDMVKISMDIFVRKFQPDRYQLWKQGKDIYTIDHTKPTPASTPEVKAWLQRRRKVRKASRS
Jarid1B, sequence (Q9UGL1 2-751): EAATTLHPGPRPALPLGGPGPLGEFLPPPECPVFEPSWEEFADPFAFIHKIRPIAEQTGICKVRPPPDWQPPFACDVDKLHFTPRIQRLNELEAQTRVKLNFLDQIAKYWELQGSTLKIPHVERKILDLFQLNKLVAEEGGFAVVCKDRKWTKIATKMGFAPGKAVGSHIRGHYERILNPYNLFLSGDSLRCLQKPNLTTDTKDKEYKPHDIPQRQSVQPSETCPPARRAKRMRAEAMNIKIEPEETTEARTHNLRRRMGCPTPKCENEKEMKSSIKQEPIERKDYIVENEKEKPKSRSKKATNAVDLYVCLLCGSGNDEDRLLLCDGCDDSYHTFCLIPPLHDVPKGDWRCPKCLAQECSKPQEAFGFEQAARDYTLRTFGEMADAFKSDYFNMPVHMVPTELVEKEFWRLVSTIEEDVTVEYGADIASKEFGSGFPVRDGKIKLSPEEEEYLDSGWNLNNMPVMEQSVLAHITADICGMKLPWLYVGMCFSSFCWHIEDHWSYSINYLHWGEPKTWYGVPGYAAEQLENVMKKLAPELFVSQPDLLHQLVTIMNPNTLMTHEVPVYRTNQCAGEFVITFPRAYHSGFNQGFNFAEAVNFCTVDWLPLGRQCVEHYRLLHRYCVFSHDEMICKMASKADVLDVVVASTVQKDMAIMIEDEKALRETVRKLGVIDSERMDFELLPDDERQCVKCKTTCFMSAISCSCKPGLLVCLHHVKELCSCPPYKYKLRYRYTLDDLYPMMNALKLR
Jarid1A, sequence (P29375 1-1090): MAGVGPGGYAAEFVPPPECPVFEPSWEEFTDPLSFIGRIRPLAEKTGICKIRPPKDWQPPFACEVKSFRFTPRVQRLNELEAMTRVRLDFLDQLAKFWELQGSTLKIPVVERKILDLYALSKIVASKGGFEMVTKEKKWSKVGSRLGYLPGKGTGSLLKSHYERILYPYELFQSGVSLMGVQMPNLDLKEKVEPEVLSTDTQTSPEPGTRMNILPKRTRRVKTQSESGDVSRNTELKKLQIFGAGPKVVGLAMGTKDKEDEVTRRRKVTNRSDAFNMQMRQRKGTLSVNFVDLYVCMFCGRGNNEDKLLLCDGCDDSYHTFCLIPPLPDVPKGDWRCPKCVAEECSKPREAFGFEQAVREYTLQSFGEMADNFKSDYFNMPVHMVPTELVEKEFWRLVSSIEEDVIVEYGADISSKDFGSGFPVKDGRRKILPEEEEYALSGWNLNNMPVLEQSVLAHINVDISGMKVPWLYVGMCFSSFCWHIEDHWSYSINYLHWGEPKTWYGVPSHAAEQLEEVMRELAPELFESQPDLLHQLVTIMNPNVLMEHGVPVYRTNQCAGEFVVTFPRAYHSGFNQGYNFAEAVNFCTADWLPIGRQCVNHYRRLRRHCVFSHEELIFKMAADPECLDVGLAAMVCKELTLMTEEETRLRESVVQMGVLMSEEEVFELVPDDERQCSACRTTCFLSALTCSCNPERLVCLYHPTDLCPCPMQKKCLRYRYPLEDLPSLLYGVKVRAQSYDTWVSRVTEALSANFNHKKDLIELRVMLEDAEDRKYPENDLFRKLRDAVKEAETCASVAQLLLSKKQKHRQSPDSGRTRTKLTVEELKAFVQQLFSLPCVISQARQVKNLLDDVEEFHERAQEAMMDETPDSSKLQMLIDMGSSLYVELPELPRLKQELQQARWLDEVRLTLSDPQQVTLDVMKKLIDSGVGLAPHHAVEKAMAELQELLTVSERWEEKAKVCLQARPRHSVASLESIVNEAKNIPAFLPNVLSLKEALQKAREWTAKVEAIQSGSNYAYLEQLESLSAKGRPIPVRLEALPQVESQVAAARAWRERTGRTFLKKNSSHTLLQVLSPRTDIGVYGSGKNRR

For the molecule `Cn1nc(Nc2cnccc2C(=O)O)c2ccccc21` [Example 1, 3-[(1-methyl-1H-indazol-3-yl)amino]pyridine-4-carboxylic acid], the negative-log IC50 (pIC50) in assay [1] is above 7.00; in assay [2], above 7.00; in assay [3] it was 5.00 to 6.00; in assay [4], above 7.00.

For `O=C(O)c1ccncc1Nc1noc2ccccc12` [Example 3, 3-(1,2-benzoxazol-3-ylamino]pyridine-4-carboxylic acid], the pIC50 in assay [1], in assay [2] and in assay [4] was above 7.00 in each case.

On to `Cn1nc(Nc2cnccc2C(=O)O)c2cc(F)ccc21` [Example 7, 3-[(5-fluoro-1-methyl-1H-indazol-3-yl)amino]pyridine-4-carboxylic acid], for which the negative-log IC50 (pIC50) was above 7.00 in assay [1], above 7.00 in assay [2], 5.00 to 6.00 in assay [3] and above 7.00 in assay [4].

Take `CN(C)CCOCCn1nc(Nc2cnccc2C(=O)O)c2ccccc21` [Example 11, 3-[(1-{2-[2-(dimethylamino)ethoxy]ethyl}-1H-indazol-3-yl)amino]pyridine-4-carboxylic acid]: the pIC50 in assay [1] is above 7.00; in assay [2], above 7.00; in assay [3], below 5.00; in assay [4], above 7.00.

On to `Cn1nc(Nc2cnccc2C(=O)O)c2c(F)cccc21` [Example 13, 3-[(4-fluoro-1-methyl-1H-indazol-3-yl)amino]pyridine-4-carboxylic acid], for which the pIC50 in assay [1], in assay [2] and in assay [4] was above 7.00 throughout.

In the case of `Cn1nc(Nc2cnccc2C(=O)O)c2cc(C(F)(F)F)ccc21` [Example 14, 3-[(5-trifluoromethyl-1-methyl-1H-indazol-3-yl)amino]pyridine-4-carboxylic acid], the pIC50 in assay [1] was above 7.00; in assay [2], above 7.00; in assay [3], 5.00 to 6.00; in assay [4] it was above 7.00.

`COCCCn1nc(Nc2cnccc2C(=O)O)c2cc(F)ccc21` [Example 17, 3-{[5-fluoro-1-(methoxypropyl)-1H-indazol-3-yl]amino}pyridine-4-carboxylic acid]: the pIC50 in assay [1] is above 7.00; in assay [2], above 7.00; in assay [3], below 5.00; in assay [4], above 7.00.

On to `CCCn1nc(Nc2cnccc2C(=O)O)c2cccc(F)c21` [Example 20, 3-[(7-fluoro-1-propyl-1H-indazol-3-yl)amino]pyridine-4-carboxylic acid], for which the pIC50 in assay [1] is above 7.00; in assay [2], above 7.00; in assay [3], 5.00 to 6.00; in assay [4] it was above 7.00.

Turning to `CCC(C)n1nc(Nc2cnccc2C(=O)O)c2cc(F)ccc21` (centres unmarked) [Example 26, 3-{[5-fluoro-1-(butan-2-yl)-1H-indazol-3-yl]amino}pyridine-4-carboxylic acid], the pIC50 is above 7.00 in assay [1], above 7.00 in assay [2] and 5.00 to 6.00 in assay [3].

In the case of `O=C(O)c1ccncc1Nc1nn(CC2CCC2)c2ccc(F)cc12` [Example 28, 3-{[1-(cyclobutylmethyl)-5-fluoro-1H-indazol-3-yl]amino}pyridine-4-carboxylic acid], the values for the pIC50 in assay [1], in assay [2] and in assay [3] were above 7.00, above 7.00 and 6.00 to 7.00, respectively.

`O=C(O)c1ccncc1Nc1nn(C2CCCC2)c2ccc(F)cc12` [Example 29, 3-[(1-cyclopentyl-5-fluoro-1H-indazol-3-yl)amino]pyridine-4-carboxylic acid]: the negative-log IC50 (pIC50) in assay [1] is above 7.00; in assay [2], above 7.00; in assay [3], 6.00 to 7.00.

Take `O=C(O)c1ccncc1Nc1nn(CC2CCCC2)c2ccc(F)cc12` [Example 30, 3-{[1-(cyclopentylmethyl)-5-fluoro-1H-indazol-3-yl]amino}pyridine-4-carboxylic acid]: the pIC50 in assay [1] was above 7.00; in assay [2] it was above 7.00; in assay [3], 5.00 to 6.00.

On to `O=C(O)c1ccncc1Nc1nn(CCC2CC2)c2ccc(F)cc12` [Example 31, 3-{[1-(cyclopropylethyl)-5-fluoro-1H-indazol-3-yl]amino}pyridine-4-carboxylic acid], for which the figures for the negative logarithm of the IC50 (pIC50) in assay [1], in assay [2] and in assay [3] were above 7.00, above 7.00 and 5.00 to 6.00, respectively.

As for `O=C(O)c1ccncc1Nc1nn(CCC(F)(F)F)c2ccc(F)cc12` [Example 32, 3-{[5-fluoro-1-(3,3,3-trifluoropropyl)-1H-indazol-3-yl]amino}pyridine-4-carboxylic acid], the pIC50 in assay [1] was above 7.00; in assay [2], above 7.00; in assay [3], 6.00 to 7.00.

For the molecule `CCCn1nc(Nc2cnccc2C(=O)O)c2cc(Cl)ccc21` [Example 33, 3-[(5-chloro-1-propyl-1H-indazol-3-yl)amino]pyridine-4-carboxylic acid], the figures for the negative-log IC50 (pIC50) in assay [1], in assay [2] and in assay [3] were above 7.00, above 7.00 and 6.00 to 7.00, respectively.

For `O=C(O)c1ccncc1Nc1nn(CC2CC2)c2ccc(Cl)cc12` [Example 34, 3-{[5-chloro-1-(cyclopropylmethyl)-1H-indazol-3-yl]amino}pyridine-4-carboxylic acid], the negative logarithm of the IC50 (pIC50) in assay [1] is above 7.00; in assay [2], above 7.00; in assay [3], 5.00 to 6.00.

As for `O=C(O)c1ccncc1Nc1nn(CCC(F)(F)F)c2ccc(Cl)cc12` [Example 35, 3-{[5-chloro-1-(3,3,3-trifluoropropyl)-1H-indazol-3-yl]amino}pyridine-4-carboxylic acid], the pIC50 in assay [1] is above 7.00; in assay [2], above 7.00; in assay [3], 6.00 to 7.00.

For the molecule `Cc1ccc2c(c1)c(Nc1cnccc1C(=O)O)nn2CC1CC1` [Example 37, 3-{[1-(cyclopropylmethyl)-5-methyl-1H-indazol-3-yl]amino}pyridine-4-carboxylic acid], the pIC50 is above 7.00 in assay [1], above 7.00 in assay [2] and 6.00 to 7.00 in assay [3].

Regarding `CN(C)CCOCCn1nc(Nc2cnccc2C(=O)O)c2cc(Cl)ccc21` [Example 40, 3-[(1-{2-[2-(dimethylamino)ethoxy]ethyl}-5-chloro-1H-indazol-3-yl)amino]pyridine-4-carboxylic acid, trifluoroacetic acid salt], the pIC50 in assay [1], in assay [2] and in assay [4] was above 7.00 each time.

In the case of `CN1CCC(CCn2nc(Nc3cnccc3C(=O)O)c3cc(F)ccc32)CC1` [Example 41, 3-({5-fluoro-1-{2-(1-methylpiperidin-4-yl)ethyl]-1H-indazol-3-yl]amino)pyridine-4-carboxylic acid, trifluroacetic acid salt], the pIC50 in assay [1], in assay [2] and in assay [4] was above 7.00 throughout.

Consider `O=C(O)c1ccncc1Nc1nn(CCCCCO)c2ccc(F)cc12` [Example 44, 3-{[5-fluoro-1-(5-hydroxypentyl)-1H-indazol-3-yl]amino}pyridine-4-carboxylic acid], for which the pIC50 in assay [1], in assay [2] and in assay [4] was above 7.00 each time.

`CCCn1nc(Nc2cnccc2C(=O)O)c2cccc(C)c21` [Example 45]: the pIC50 was 5.00 to 6.00 in assay [3] and 6.00 to 7.00 in assay [4].

On to `O=C(O)c1ccncc1Nc1nn(CC(O)C(F)(F)F)c2ccc(F)cc12` (centres unmarked) [Example 55, 3-{[5-fluoro-1-(3,3,3-trifluoro-2-hydroxypropyl)-1H-indazol-3-yl]amino}pyridine-4-carboxylic acid], for which the pIC50 in assay [1], in assay [2] and in assay [4] was above 7.00 throughout.

Regarding `O=C(O)c1ccncc1Nc1nn(CCN2CCOCC2)c2ccc(F)cc12` [Example 56, 3-({5-fluoro-1-[2-(morpholin-1-yl)ethyl]-1H-indazol-3-yl}amino)pyridine-4-carboxylic acid], the negative logarithm of the IC50 (pIC50) in assay [1], in assay [2] and in assay [4] was above 7.00 in each case.

For `O=C(O)c1ccncc1Nc1cn(CCC(F)(F)F)c2ccc(Cl)cc12` [Example 59, 3-{[5-chloro-1-(3,3,3-trifluoropropyl)-1H-indol-3-yl]amino}pyridine-4-carboxylic acid], the pIC50 in assay [1] is above 7.00; in assay [2] it was above 7.00; in assay [3] it was 5.00 to 6.00.

Take `O=C(O)c1ccncc1Nc1nn(C2CCOC2)c2ccc(Cl)cc12` (centres unmarked) [Example 69, 3-{[5-chloro-1-(tetrahydrofuran-3-yl)-1H-indazol-3-yl]amino}pyridine-4-carboxylic acid]: the pIC50 in assay [1] was above 7.00; in assay [2], above 7.00; in assay [3], 5.00 to 6.00.

`N#CNC(=O)c1ccncc1Nc1nn(CCN2CCCC2)c2ccc(F)cc12` [Example 77, N-cyano-3-({5-fluoro-1-[2-(pyrrolidin-1-yl)ethyl]-1H-indazol-3-yl}amino)pyridine-4-carboxamide]: the pIC50 in assay [1], in assay [2] and in assay [4] was above 7.00 throughout.

For the molecule `O=C(O)c1ccncc1Nc1nn(CCN2CCCC2)c2ccc(Cl)cc12` [Example 78, 3-({5-chloro-1-[2-(pyrrolidin-1-yl)ethyl]-1H-indazol-3-yl}amino)pyridine-4-carboxylic acid], the pIC50 in assay [1], in assay [2] and in assay [4] was above 7.00 throughout.

Values taken from patent US9617242B2, “Histone demethylase inhibitors” (priority 2012, dated 2017).
